Laboratory results: patent US20110086802A1, “METHODS TO INCREASE PERMEABILITY OF CORNEAL EPITHELIUM AND DESTABILIZE STROMAL COLLAGEN FIBRIL NETWORK” (priority 2008, published 2011)
Structures can show the parent of a compound that is named as a salt.

B1: human recombinant decorin: Human recombinant Decorin prepared from CHO-S cells, MW approximately 40,000 daltons; stabilization molecule (small leucine-rich proteoglycan) (protein, UniProt P07585 31-359, looked up)
Decorin: DEASGIGPEVPDDRDFEPSLGPVCPFRCQCHLRVVQCSDLGLDKVPKDLPPDTTLLDLQNNKITEIKDGDFKNLKNLHALILVNNKISKVSPGAFTPLVKLERLYLSKNQLKELPEKMPKTLQELRAHENEITKVRKVTFNGLNQMIVIELGTNPLKSSGIENGAFQGMKKLSYIRIADTNITSIPQGLPPSLTELHLDGNKISRVDAASLKGLNNLAKLGLSFNSISAVDNGSLANTPHLRELHLDNNKLTRVPGGLAEHKYIQVVYLHNNNISVVGSSDFCPPGHNTKKASYSGVSLFSNPVQYWEIQPSTFRCVYVRSAIQLGNYK

Legend:
feline cornea [1] = assay: Corneal Hysteresis, Feline Study #1 (Reichert Ocular Response Analyzer); type: in vivo, cat; set-up: Corneal Hysteresis (CH): unit not given here
Experimental: Cats were placed in three treatment groups. One eye from two cats were untreated controls. All treatment solutions were administered using an applicator to localize exposure to the central corneal surface. The applicator used to apply solutions to the corneal surface was similar in design to that described in the co-pending provisional application entitled “APPARATUS TO IMPROVE LOCALIZED CONCENTRATION OF FLUIDS IN OCULAR ENVIRONMENTS” to Bruce DeWoolfson and Michael Luttrell, provisional application No. 61/064,731, filed Mar. 24, 2008, incorporated herein by reference in its entirety. Two eyes was treated with Proparacaine HCl, followed by treatment with 0.5M sodium phosphate buffer (pH 8.35), then with 3 mg of glutaric anhydride dissolved in 0.6 mL of sodium phosphate buffer, then with sodium phosphate buffer, followed by 1.5 μL of acetic anhydride diluted in 0.6 mL of sodium phosphate buffer, a second treatment with 1.5 μL of acetic anhydride in 0.6 mL of sodium phosphate buffer, a buffer rinse and finally treatment with 0.6 mL of human recombinant decorin (4.47 mg/mL).
Two eyes were treated as above but without a final treatment with decorin solution. All eyes were clinically evaluated immediately post-treatment. Three days following treatment, eyes were enucleated and the corneas removed, placed in formalin containing Cupromeronic blue.
Measurements of Corneal Hysteresis (CH) in the animals treated in Example 2. Corneal Hysteresis is a measure of the biomechanical strength of the cornea and is measured using the Reichert Ocular Response Analyzer. The Reichert Ocular Response Analyzer utilizes a dynamic bi-directional applanation process to measure the biomechanical properties of the cornea and the Intraocular Pressure of the eye. The basic output of the measurement process is a Goldmann-correlated pressure measurement (IOPG), and a new measure of corneal tissue properties called Corneal Hysteresis (CH).

[2] = tested on: epithelial cell junctures of human donor corneal tissue; assay: Confocal microscopy of fluorescent-tagged decorin penetration into donor cornea; type: in vitro ADME; details: for disruption of epithelial cell junctures permitting diffusion of human recombinant decorin: human donor cornea, agent applied 30 seconds to central cornea by applicator before fluorescent-tagged decorin
Source text: Confocal Microscopy of glutaric anhydride treated cornea. Four donor corneas were obtained from Insight Biomed (Minneapolis, Minn.). All cornea tested negative for viral contamination. Corneas were rejected for transplantation due to storage expiration, low endothelial cell counts or other factors not related to epithelial cell integrity and stromal structure. All corneas were examined by slit-lamp microscopy for epithelial cell integrity. Corneas were stored in Optisol (Bausch & Lomb) for storage. Confocal microscopy was conducted at the Department of Surgical Research, Dartmouth-Hitchcock Medical Center, Lebanon, N.H. Two corneas were untreated controls and two were treated with glutaric anhydride followed by application of fluorescent-tagged human recombinant decorin. […] Fluorescent-tagged decorin was prepared by reacting decorin with Oregon Green 488 using a labeling kit from Molecular Probes.
All corneas were placed on a convex silicone pad and secured with pins. This allowed exposure to the corneal surface in a fixed position. All treatment solutions were administered using an applicator to localize exposure to the central corneal surface. Control cornea were treated with Proparacaine HCl for 1 minute followed by treatment with 0.5 mL of 0.2M sodium phosphate buffer (pH 8.3-8.5) for 30 seconds, 0.5 mL of saline rinse for 30 seconds, and then 0.1 mL of fluorescent-tagged human recombinant decorin. T reated cornea were treated with Proparacaine HCl for 1 minute, followed by treatment with 0.5 mL of 0.2M sodium phosphate buffer (pH 8.3-8.5) for 30 seconds, glutaric anhydride (dissolved immediately before application in sodium phosphate buffer (pH 8.3-8.5) at 5 mg/mL) for 30 seconds, saline rinsed, and then treated with 0.1 mL of fluorescent-tagged human recombinant decorin. Control and treated corneas were examined for decorin diffusion into the stroma using the Zeis confocal microscope (Model LSM 510 Meta; C apo 40×, NA=1.2, Thornwood, N.Y.).
Confocal Microscopy of acetic anhydride treated cornea. The protocol was the same as that described above for glutaric anhydride treatment. All treatment solutions were administered using an applicator to localize exposure to the central corneal surface. The applicator used to apply solutions to the corneal surface was similar in design to that described in the co-pending provisional application entitled “APPARATUS TO IMPROVE LOCALIZED CONCENTRATION OF FLUIDS IN OCULAR ENVIRONMENTS” to Bruce DeWoolfson and Michael Luttrell, provisional application No. 61/064,731, filed Mar. 24, 2008, incorporated herein by reference in its entirety. Control cornea were treated with Proparacaine HCl for 1 minute followed by treatment with 0.5 mL of 0.2M sodium phosphate buffer (pH 8.3-8.5) for 30 seconds, 0.5 mL of saline rinse for 30 seconds, and then 0.1 mL of fluorescent-tagged human recombinant decorin. Treated cornea were treated with Proparacaine HCl for 1 minute, followed by treatment with 0.5 mL of 0.3M sodium phosphate buffer (pH 8.3-8.5) for 30 seconds, acetic anhydride (3 μL) (diluted with 0.3M sodium phosphate buffer (pH 8.3-8.5) immediately before application) for 30 seconds, saline rinsed, and then treatment with 0.1 mL of fluorescent-tagged human recombinant decorin. Control and treated corneas were examined for decorin diffusion into the stroma using the Zeis confocal microscope (Model LSM 510 Meta; C apo 40×, NA=1.2, Thornwood, N.Y.).

feline cornea [3] = assay: Corneal Hysteresis, Feline Study #2 (Reichert Ocular Response Analyzer); type: in vivo, cat; set-up: Corneal Hysteresis (CH): unit not given here
Experimental: A second study was conducted to examine the effects of acylation on “softening” or destabilizing corneal structural integrity using the Reichert Ocular Response Analyzer. Five subject animals were included in this study. One eye of each animal was treated with the contralateral eye serving as the control. For three animal subjects treatment eyes were evaluated for corneal hysteresis using the Reichert Ocular Response Analyzer before treatment and then after treatment with Proparacaine HCL, acetic anhydride diluted in sodium phosphate solution at a pH of 8.3-8.5, and decorin. For two animal subjects, no acylation agent was applied to the cornea. Instead, a 4 mm trephine was used to penetrate the corneal epithelium to provide a track for decorin penetration. Corneal hysteresis results are shown below in Table 2.

corneal epithelium = details: cited from earlier work
stromal collagen fibers = assay: Transmission electron microscopy of decorin-treated cat cornea (first study); type: in vivo; details: cat eyes exposed to 50 μg decorin for 1, 3 or 5 days, no applicator; versus control cornea
Experimental: The following study was conducted at the Department of Surgical Research, Dartmouth-Hitchcock Medical Center, Lebanon, N.H. Five adult female cats were included in the study. All animals procured from Liberty Laboratories and were identified by ear tattoo. Ocular toxicity was determined by slit-lamp examination and measurement of endothelial cell structure. Decorin penetration into the corneal stroma was determined utilizing transmission electron microscopy. Cornea treated with decorin were reacted with Quinolinic Blue Stain (Cupromeronic blue) in buffered formalin. This reagent stains small proteoglycan structures such as decorin.
Cats were placed in three treatment groups. One eye from each group was treated with decorin. Three eyes were controls. Treated eyes were exposed to 50 μg of decorin for 1 day, 3 days or 5 days. Decorin solution was administered to the corneal using a sterile transfer pipet. An applicator was not used to localize the solution to the central corneal surface. All eyes were clinically evaluated immediately post-treatment and at days 2, 3, 5, and 8. One month after final treatment, eyes were reexamined and then enucleated. Each eye was sectioned. One half was placed in Formalin for subsequent histological analysis. The other half was again divided in half, one half prepared for Transmission Electron Microscopy. […]

[4] = Animal IBT4 treated eye, after the named step of the sequence Proparacaine, GA, AA #1, AA #2, decorin, Initial 4.0
[5] = Animal QKU8 treated eye, no decorin, after the named step of the sequence, Initial 7.0
[6] = Animal QKU8 treated eye, after the named step of the sequence, Initial 6.4
[7] = Animal QNO6 treated eye, no decorin, after the named step of the sequence, Initial 6.3
[8] = Animal AHH3, after the named step of Proparacaine HCL, acetic anhydride, decorin, Initial 8.75
[9] = Animal QJD4, after the named step of Proparacaine HCL, acetic anhydride, decorin, Initial 6.9
[10] = Animal RAF6, after the named step of Proparacaine HCL, acetic anhydride, decorin, Initial 5.88

| Molecule | Corneal Hysteresis (CH) (feline cornea [1]; [4]) | Corneal Hysteresis (CH) (feline cornea [1]; [5]) | Corneal Hysteresis (CH) (feline cornea [1]; [6]) | Corneal Hysteresis (CH) (feline cornea [1]; [7]) | disruption of epithelial cell junctures permitting diffusion of human recombinant decorin [2] | Corneal Hysteresis (CH) (feline cornea [3]; [8]) | Corneal Hysteresis (CH) (feline cornea [3]; [9]) | Corneal Hysteresis (CH) (feline cornea [3]; [10]) | other results |
| --- | --- | --- | --- | --- | --- | --- | --- | --- | --- |
| CCCOc1ccc(C(=O)OCCN(CC)CC)cc1N [Proparacaine, Proparacaine HCl, reference compound] | 7.0 | 7.5 | 8.0 | 7.0 |  |  |  |  |  |
| CC(=O)OC(C)=O [acetic anhydride] | 3.2 | 5.7 | 7.0 | 5.7 | successfully disrupted the epithelial cell junctures | 5.73 | 3.9 | 4.15 | Corneal Hysteresis (CH) (feline cornea [1]; Animal IBT4 treated eye, Post-AA #2 (second acetic anhydride treatment), Initial 4.0): 3.9; Corneal Hysteresis (CH) (feline cornea [1]; Animal QKU8 treated eye, Post-AA #2, Initial 6.4): 6.7; Corneal Hysteresis (CH) (feline cornea [1]; Animal QKU8 treated eye, Post-AA #2, Initial 7.0): 4.8; Corneal Hysteresis (CH) (feline cornea [1]; Animal QNO6 treated eye, Post-AA #2, Initial 6.3): 3.8 |
| C[C@@H]1CC[C@@]2(OC1)O[C@H]1[C@@H](O)[C@H]3[C@@H]4CC[C@H]5C[C@@H](O[C@@H]6O[C@H](CO)[C@H](O[C@@H]7O[C@H](CO)[C@@H](O)[C@H](O[C@@H]8OC[C@@H](O)[C@H](O)[C@H]8O)[C@H]7O[C@@H]7O[C@H](CO)[C@H](O)[C@H](O[C@@H]8O[C@H](CO)[C@@H](O)[C@H](O)[C@H]8O)[C@H]7O)[C@H](O)[C@H]6O)[C@H](O)C[C@]5(C)[C@H]4CC[C@]3(C)[C@H]1[C@@H]2C [digitonin] |  |  |  |  |  |  |  |  | effect of pretreating cornea on drug penetration (corneal epithelium; Shih and Lee): enhance penetration of timolol; effect of pretreating cornea on epithelium layers (corneal epithelium; Shih and Lee): exfoliate the top 2 layers of epithelium |
| O=C1CCCC(=O)O1 [glutaric anhydride] | 3.3 | 6.4 | 5.3 | 6.4 | successfully disrupted the epithelial cell junctures |  |  |  |  |
| cetylpyridium chloride |  |  |  |  |  |  |  |  | effect on corneal epithelium (corneal epithelium; 0.02%, Godbey): disrupted the top layers of epithelial cells |
| B1 | 4.6 |  | 7.9 |  |  | 7.3 | 6.3 | 5.18 | decorin penetration into cornea ([2]; control cornea, epithelial cell junctures not disrupted, applied directly to central cornea): limited to the epithelium; decorin penetration into cornea ([2]; cornea pretreated with acetic anhydride (3 μL) for 30 seconds): penetrated the corneal stroma; decorin penetration into cornea ([2]; cornea pretreated with glutaric anhydride 5 mg/mL for 30 seconds): penetrated the corneal stroma; molecular bridges (links between fibers) between collagen fibers, TEM (stromal collagen fibers): increase in molecular bridges; change of corneal hysteresis (CH), in words (feline cornea [1]; Feline Study #1, sequential acylation then decorin): increased CH values to levels greater than initial values; Corneal Hysteresis (CH) (feline cornea [3]; Animal BEA4, no acylation agent, 4 mm trephine through epithelium, Initial 3.65): 4.8; Corneal Hysteresis (CH) (feline cornea [3]; Animal IRH6, no acylation agent, 4 mm trephine through epithelium, Initial 7.98): 8.03; change of CH values, in words (feline cornea [3]; Feline Study #2, acylation agent treated cornea): increased CH values; change of CH values, in words (feline cornea [3]; Feline Study #2, trephined but not acylation agent treated cornea): minimal increase in CH values |
